The results in this text go back to the NIST ThermoML archive (doi:10.1021/acs.jced.7b00485).

The conditions of this data set: Liquid, Closed cell (Static) method.

Numbers after ± are expanded uncertainties.

Consider `CCCC` [butane], for which the “vapor or sublimation pressure” value reads like this: (273.27 K) 104 ± 1 kPa; (288.25 K) 177 ± 1 kPa; (294.23 K) 215 ± 1 kPa; (296.23 K) 231 ± 1 kPa; (308.21 K) 332 ± 1 kPa; (323.19 K) 498 ± 1 kPa.
As for `FC(F)(F)C(F)(F)F` [hexafluoroethane], the “vapor or sublimation pressure” value is recorded as 1851 ± 3 kPa (273.27 K) and 2708 ± 4 kPa (288.25 K).

One may read the vapor or sublimation pressure as the equilibrium pressure above the liquid or solid.
